Source: patent US20230310445A1, “LOX ENZYME INHIBITING METHODS AND COMPOSITIONS” (ANOVIA BIOSCIENCES, INC., priority 2020, published 2023)
Like-named read-outs stand apart in the source and are kept apart here.

How the values were obtained:
[1] = Permeability study in Caco-2 cell line; assay type: in vitro ADME; details: human; for efflux ratio at 2 h, 5 μM: Caco-2, pH 7.4; for Papp A→B at 2 h, 5 μM: Caco-2, apical to basolateral; for Papp A→B at 2 h, 5 μM / Papp B→A at 2 h, 5 μM: pH 7.4; for Papp B→A at 2 h, 5 μM: Caco-2, basolateral to apical
Description: Caco-2 cell suspensions were dispensed into the inserts of the 96-well HTS Transwell plate and cultivated for 14-18 days. Transepithelial electrical resistance (TEER) across the monolayer was measured using Millicell Epithelial Volt-Ohm measuring system. The Caco-2 plate was then washed twice with pre-warmed HBSS (pH 7.4) and incubated at 37° C. for 30 minutes. To determine the rate of drug transport in the apical to basolateral direction. 5 μM test compound was added to the Transwell insert and the wells in the receiver plate were filled with HBSS (pH 7.4). To determine the rate of drug transport in the basolateral to apical direction, 5 μM test compound was added to the receiver plate wells and then the Transwell inserts were filled with HBSS (pH 7.4). The plates were incubated at 37° C. for 2 hours. 50 μL samples from donor sides and receiver sides were transferred to wells of a new 96-well plate followed by the addition of 4 volume of cold methanol containing internal standards (IS). Samples were centrifuged and the supernatant was used for LC-MS/MS analysis. After the incubation, residue solutions were removed from the Transwell plates, and Lucifer yellow (100 μM) solution was added to each Transwell insert, followed by filling the receiver wells with HBSS. The plates were incubated at 37° C. for 30 minutes. 80 μL samples were removed from the apical and basolateral wells and the fluorescence of Lucifer yellow was measured in a microplate reader with 485 nm excitation and 530 nm emission.

[2] = PK study following IV and PO administration in male CD1 mice; assay type: in vivo, mouse; design: AUClast/D: unit: (ng*h/mL)/(mg/kg); details: for AUClast/D / CIobs / AUC(0-inf) / AUC(0-t) / C0 / half-life / MRT inf / Vd / Cmax / Tmax: plasma, mean of three mice; for CIobs: unit assumed; for F: PO 50 mg/kg versus IV 10 mg/kg; for AUC(0-inf) / AUC(0-t) / C0 / half-life / MRT inf / Vd / Cmax / Tmax: mouse; for MRT inf: read-out: MRTInf—obs; for Vd: read-out: Vss—obs
Description: The objective of this study was to determine the pharmacokinetic (PK) profile of LOX enzyme inhibiting compounds following IV and PO administrations in male CD1 mice.
Male CDT mice from a qualified provider were used for all studies. Mice were 6-8 weeks old at the time of the experiment (˜20-30 g body weight). All animals for IV & PO administration were fasted overnight and fed after 4 hours collection. The dose formulation was kept at room temperature no more than 2 hours.
Dose formulations were prepared fresh on the day of dosing and stored at ambient temperature. Dose formulations were as following: […]
Blood samples were collected from the dorsal metatarsal vein. Circa 0.03 mL were collected per time point and 0.3 mL at final time point via heart puncture. The blood samples were centrifuged at 4000 g for 5 minutes at 4° C. to obtain plasma and samples were immediately frozen in the upright position and stored at −75±15° C. prior to analysis.
Blood samples were collected at time points outlined in Table 12:
Acceptable time ranges for blood collection were as following: 5 min and 15 min: within +0.25 minute, 30 min, 1 hour, and 2 hours: within +2 minutes; 4 hours, 6 hours, 8 hours, and 24 hours: within +10 minutes.
Concentrations of LOX enzyme inhibiting compounds in the plasma were analyzed using a LC-MS/MS method. WinNonlin (Phoenix™, version 8.2) software was used for pharmacokinetic calculations. The following pharmacokinetic parameters were calculated, whenever possible from the plasma concentration versus time data:
IV administration: T1/2, C0, AUClast, AUCinf, MRTinf, Cl, Vss, Number of Points for Regression.
PO administration: T1/2, Cmax, Tmax, AUClast, AUCinf and F. Number of Points for Regression.
The pharmacokinetic data were described using descriptive statistics such as mean, standard deviation.
Results are outlined in Table 13 (IV), Table 14 (PO) and FIGS. 1-3. Data represent mean values from three mice.

[3] = Caco-2, pH 7.4, Caco-2, apical to basolateral, read-out: Recovery (%)AP-BL
[4] = Caco-2, pH 7.4, Caco-2, basolateral to apical, read-out: Recovery (%)BL-AP

Compound	efflux ratio at 2 h, 5 μM [1]	recovery at 2 h, 5 μM [1, 3] [%]	recovery at 2 h, 5 μM [1, 4] [%]	Papp A→B at 2 h, 5 μM [1] [×10⁻⁶ cm/s]	Papp B→A at 2 h, 5 μM [1] [×10⁻⁶ cm/s]	AUClast/D ([2]; IV, 10 mg/kg)	CIobs ([2]; IV, 10 mg/kg) [mL/min/kg]	F [2]	AUClast/D ([2]; PO, 50 mg/kg)	AUC(0-inf) ([2]; IV, 10 mg/kg) [ng·h/mL]	AUC(0-t) ([2]; IV, 10 mg/kg) [ng·h/mL]	C0 ([2]; IV, 10 mg/kg) [ng/mL]	half-life ([2]; IV, 10 mg/kg) [min]	MRT inf ([2]; IV, 10 mg/kg) [min]	Vd ([2]; IV, 10 mg/kg) [L/kg]	AUC(0-inf) ([2]; PO, 50 mg/kg) [ng·h/mL]	AUC(0-t) ([2]; PO, 50 mg/kg) [ng·h/mL]	Cmax ([2]; PO, 50 mg/kg) [ng/mL]	Tmax ([2]; PO, 50 mg/kg) [min]	half-life ([2]; PO, 50 mg/kg) [min]	other results
CS(=O)(=O)N1CCN(C(=O)[C@H]2C[C@@H](c3ccccc3F)CN(S(=O)(=O)c3ccc(CN)s3)C2)CC1.O=C(O)C(F)(F)F (racemic) [Example 91, cis-(1-((5-(Aminomethyl)thiophen-2-yl)sulfonyl)-5-(2-fluorophenyl)piperidin-3-yl)(4-(methylsulfonyl)piperazin-1-yl)methanone 2,2,2-trifluoroacetate]	138	68.6	78.2	0.11	15.6	–	–	–	–	–	–	–	–	–	–	–	–	–	–	–	–
NCc1ccnc(S(=O)(=O)N2C[C@@H](C(=O)N3CCS(=O)(=O)CC3)C[C@@H](C3CCCCC3)C2)c1.O=C(O)C(F)(F)F (racemic) [Example 146, cis-(1-((4-(Aminomethyl)pyridin-2-yl)sulfonyl)-5-cyclohexylpiperidin-3-yl)(1,1-dioxidothiomorpholino)methanone 2,2,2-trifluoroacetate]	–	–	–	–	–	164	103	7.2	11.3	1650	1640	6150	287	51	5.12	590	563	503	15	337	MRT inf ([2]; PO, 50 mg/kg): 221 min
CS(=O)(=O)[C@H]1C[C@@H](S(=O)(=O)c2cccc(CN)c2)CN(c2ccccc2)C1 (racemic) [Example 23, cis-(3-((-5-(Methylsulfonyl)-1-phenylpiperidin-3-yl)sulfonyl)phenyl)methanamine]	61.4	86.5	103	0.38	23.3	–	–	–	–	–	–	–	–	–	–	–	–	–	–	–	–
NCc1ccc(S(=O)(=O)N2C[C@H](C(=O)N3CCS(=O)(=O)CC3)C[C@@H](c3ccccc3)C2)s1.O=C(O)C(F)(F)F (racemic) [Example 75B, trans-(1-((5-(Aminomethyl)thiophen-2-yl)sulfonyl)-5-phenylpiperidin-3-yl)(1,1-dioxidothiomorpholino)methanone 2,2,2-trifluoroacetate]	30.1	72.1	83.5	0.4	12.1	–	–	–	–	–	–	–	–	–	–	–	–	–	–	–	–

Continued, in another order:

efflux ratio at 2 h, 5 μM [1]	recovery at 2 h, 5 μM [1, 3] [%]	recovery at 2 h, 5 μM [1, 4] [%]	Papp A→B at 2 h, 5 μM [1] [×10⁻⁶ cm/s]	Papp B→A at 2 h, 5 μM [1] [×10⁻⁶ cm/s]	AUClast/D ([2]; IV, 10 mg/kg)	CIobs ([2]; IV, 10 mg/kg) [mL/min/kg]	F [2]	AUClast/D ([2]; PO, 50 mg/kg)	AUC(0-inf) ([2]; IV, 10 mg/kg) [ng·h/mL]	AUC(0-t) ([2]; IV, 10 mg/kg) [ng·h/mL]	C0 ([2]; IV, 10 mg/kg) [ng/mL]	half-life ([2]; IV, 10 mg/kg) [min]	MRT inf ([2]; IV, 10 mg/kg) [min]	Vd ([2]; IV, 10 mg/kg) [L/kg]	AUC(0-inf) ([2]; PO, 50 mg/kg) [ng·h/mL]	AUC(0-t) ([2]; PO, 50 mg/kg) [ng·h/mL]	Cmax ([2]; PO, 50 mg/kg) [ng/mL]	Tmax ([2]; PO, 50 mg/kg) [min]	half-life ([2]; PO, 50 mg/kg) [min]	Compound	other results
24.5	76.8	78.8	1.16	28.5	–	–	–	–	–	–	–	–	–	–	–	–	–	–	–	NCc1ccc(S(=O)(=O)N2C[C@H](C(=O)N3CCOCC3)C[C@H](c3ccccc3)C2)s1 [Example 13B, ((3R,5R)-1-((5-(aminomethyl)thiophen-2-yl)sulfonyl)-5-phenylpiperidin-3-yl)(morpholino)methanone]	–
47.1	77.4	90.8	0.71	33.3	196	85.5	90	138	1970	1960	3590	53.4	41.5	3.55	8860	8850	5550	25	49.3	CN(C)C(=O)N1C[C@@H](c2ccccc2)C[C@@H](S(=O)(=O)c2cccc(CN)c2)C1.O=C(O)C(F)(F)F (racemic) [Example 74, cis-3-((3-(Aminomethyl)phenyl)sulfonyl)-N,N-dimethyl-5-phenylpiperidine-1-carboxamide 2,2,2-trifluoroacetate]	MRT inf ([2]; PO, 50 mg/kg): 74.4 min
